From patent EP3057949B1, “SECONDARY ALCOHOL QUINOLINYL MODULATORS OF ROR GAMMA T” (Janssen Pharmaceutica NV, priority 2013, dated 2015)

How the values were obtained:
[1] = target: T1, human RORγt ligand binding domain (RORγt LBD) (Homo sapiens, UniProt P51449); assay: ThermoFluor® Assay (RORγt thermal shift binding); settings: 0.065 mg/mL RORγt, 60 µM 1,8-ANS, pH 7.0; estimated from concentration response curves
T1 construct: His-tag (N); TurboTEV protease cleavage site (ENLYFQG) (N); made in house; host or cells: E. coli (pHIS1, modified pET vector)
T1 sequence (P51449 258-518): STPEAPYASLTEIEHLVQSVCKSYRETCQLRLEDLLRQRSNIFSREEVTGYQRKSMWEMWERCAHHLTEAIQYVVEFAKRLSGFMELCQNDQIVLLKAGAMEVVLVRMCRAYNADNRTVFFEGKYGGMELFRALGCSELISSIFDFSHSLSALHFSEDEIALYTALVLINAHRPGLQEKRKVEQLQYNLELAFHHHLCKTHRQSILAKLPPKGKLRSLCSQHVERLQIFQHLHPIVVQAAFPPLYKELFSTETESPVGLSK
Outline: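 Thermal shift of 0.065 mg/mL RORγt with 60 µM 1,8-ANS in 100 mM Hepes pH 7.0, 10 mM NaCl, 2.5 mM GSH, 0.002% Tween-20, heated at 1 °C/min; fluorescence at 500 nm. KD estimated from concentration-response of ΔTm.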

human RORγt LBD = target: T2, human RORγt LBD (Homo sapiens, UniProt P51449); assay: RORγt (LBD) Reporter Assay (GAL4 luciferase, HEK293T cells); type: cell-based; settings: for IC50: compounds for 24 hours
T2 construct: expressed in transfected cells; host or cells: HEK293T
T2 sequence (P51449 258-518): T1 sequence (P51449 258-518)
Outline: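 HEK293T cells transiently co-transfected with GAL4 DBD–human RORγt LBD (pBIND, with renilla luciferase control) and GAL4-responsive firefly luciferase reporter, plated in phenol-red free DMEM with 5% lipid-reduced FCS. Compound exposure 24 h; firefly/renilla luminescence ratio plotted against compound concentration.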

[2] = test system: IL-17 production by CD4 T cells; assay: Human Th17 Assay (IL-17 production by CD4 T cells); type: cell-based; settings: IL-17 in supernatant after 3 days, Th17 differentiation conditions
Source text: The human Thl7 assay tests the effect of RORyt modulatory compounds on IL-17 production by CD4 T cells under conditions which favor Th17 differentiation.
Total CD4^+ T cells were isolated from the peripheral blood mononuclear cells (PBMC) of healthy donors using a CD4^+ T cell isolation kit II, following the manufacturer's instructions (Miltenyi Biotec). Cells were resuspended in a medium of RPMI-1640 supplemented with 10% fetal bovine serum, penicillin, streptomycin, […], and β-mercaptoethanol and were added to 96-well plates at 1.5x10^5 per 100 µL per well. 50 µL of compound at titrated concentrations in DMSO were added into each well at final DMSO concentration at 0.2%. Cells were incubated for 1 hour, then 50 µL of Th17 cell differentiation medium was added to each well. The final concentrations of antibodies and cytokines (R&D Systems) in differentiation medium were: 3x10^6/mL anti-CD3/CD28 beads (prepared using human T cell activation/expansion kit, Miltenyi Biotec), 10 µg/mL anti-IL4, 10 µg/mL anti-IFNγ, 10 ng/mL IL1β, 10 ng/mL IL23, 50 ng/mL IL6, 3 ng/mL TGFβ and 20 U/mL IL2. Cells were cultured at 37 °C and 5% CO2 for 3 days. Supernatants were collected and the accumulated IL-17 in culture was measured by using MULTI-SPOT® Cytokine Plate following manufacture's instruction (Meso Scale Discovery). The plate was read using Sector Imager 6000, and IL-17 concentration was extrapolated from the standard curve. The IC50s were determined by GraphPad.

Row | Kd [1] | RORγt (LBD) Reporter Assay, % inhibition @ 6 µM (human RORγt LBD; 6 µM compound, 6 µM) | IC50 (human RORγt LBD) | IC50 [2] | inhibition at 6 µM (human RORγt LBD; HEK-293T, 6 µM compound) | IC50 ([2]; Homo sapiens, CD4+ T, 72 h) | SMILES
1 | 0.04 µM | 101% | 0.08 µM | 0.13 µM |  |  | COc1nc2ccc(C(O)c3cnc(C)n3C)cc2c(Cl)c1Cc1ccc(C(F)(F)F)cc1 (single isomer, unassigned) [Example 15c, (4-Chloro-2-methoxy-3-(4-(trifluoromethyl)benzyl)quinolin-6-yl)(1,2-dimethyl-1H-imidazol-5-yl)methanol]
2 | 0.069 µM |  | ~1 µM |  | 100% | 0.12 µM | COc1nc2ccc(C(O)c3cnc(C)n3C)cc2c(Cl)c1Cc1ccc(C(F)(F)F)cc1 (single isomer, unassigned) [Example 15b, (4-Chloro-2-methoxy-3-(4-(trifluoromethyl)benzyl)quinolin-6-yl)(1,2-dimethyl-1H-imidazol-5-yl)methanol]
